Test results as given in patent US20240285497A1, “METHOD FOR EVALUATING AN ABILITY OF A TEST SAMPLE TO TRIGGER A FOREIGN BODY REACTION IN THE SKIN, A METHOD FOR SCREENING A SUBSTANCE HAVING AN ABILITY TO INHIBIT A FOREIGN BODY REACTION IN THE SKIN, AND AN AGENT FOR INHIBITING A FOREIGN BODY REACTION IN THE SKIN” (priority 2021, published 2024).

Experiments:
artemin mRNA = assay: Artemin mRNA expression in HaCaT cells contacted with FICZ, quantitative PCR; format: cell-based, human; conditions: 24 hours; for expression level of artemin mRNA compared to cells without FICZ: no Fraglide-1
Procedure: First, HaCaT cells (CLI; Catalogue No.: 300493) were suspended in a DMEM medium at the density of 1×10^5 cell/mL, and 100 μL of the thus obtained suspension was added to each well of white 96 well plates (Thermo Fisher Scientific, MA, U.S.A.; Catalogue No.: 136102) so that the number of the cells in each well was 10,000 cells/well. In accordance with a conventional method, the cells were incubated at 37° C. for 24 hours in the presence of 5% CO2. Thereafter, the DMEM medium was removed, and 100 μL of a new DMEM medium containing FICZ at a predetermined concentration (i.e., 5 nM, 50 nM, 500 nM, and 5,000 nM) was added, followed by further incubation for 24 hours at 37° C. and 5% CO2. Meanwhile, negative controls were prepared by adding 100 μL of a DMEM medium containing no FICZ instead of the DMEM medium containing FICZ, which were also incubated for 24 hours at 37° C. and 5% CO2.
After the above-described incubation for 24 hours, total RNA was extracted and cDNA was prepared using a PCR kit “SuperPrep II Cell Lysis & RT Kit for qPCR” (Catalogue No.: SCQ-401) manufactured by Toyobo Co., Ltd. (Osaka, Japan) in accordance with a method described in the manual attached to the kit. Briefly, after the above-described incubation for 24 hours, cell culture medium was removed from each well and the cells were washed with PBS (Phosphate-buffered saline). Thereafter, each well was added with 10 μL of a lysis reagent, which was prepared by mixing 58.7 μL of “Lysis solution”, 0.3 μL of “gDNA Remover” and 1 μL of “RNase Inhibitor” attached to the above PCR kit. The cell culture plate was shaken for about 30 seconds, and allowed to stand at room temperature for 5 minutes, to obtain a cell lysate containing total RNA that can be used as a template for reverse transcription reaction. Herein, “Lysis Solution” was a cell lysis agent to lyse cells; “gDNA remover” was a reagent containing DNase I that degrades genome DNA; and “RNase Inhibitor” was a reagent to inhibit degradation of RNA by cellular components such as RNase, etc.
Next, cDNA was synthesized from the extracted RNA by reverse transcription. Firstly, a master mix for reverse transcription reaction was prepared by mixing 8 μL of “5×RT Master Mix” and 24 μL of “Nuclease-free water”, which were attached to the above PCR kit “SuperPrep II Cell Lysis & RT Kit for qPCR” manufactured by Toyobo Co., Ltd. (Osaka, Japan). Preparation of the master mix for reverse transcription reaction was carried out on ice. In a PCR tube, 32 μL of the obtained master mix was dispensed and then 8 μL of the above cell lysate present in each well was added to make a total volume 40 μL, which was used for the following reverse transcription reaction. The reverse transcription reaction was carried out under the conditions of 37° C. for 15 mins, 50° C. for 5 mins, and 98° C. for 5 mins. The thus obtained cDNA solution was added with 80 μL of sterile water and then frozen at −20° C. for storage.
Quantitative PCR was carried out by using THUNDERBIRD Next SYBR qPCR Mix (Toyobo Co., Ltd., Osaka, Japan; Catalogue No. QPX-201) and StepOne Real-Time PCR System (Thermo Fisher Scientific, MA, USA). […] The reaction solution was used for quantitative PCR. Based on Ct (cycle threshold) value obtained by quantitative PCR, an amount of mRNA of each target gene was obtained. […]

HaCaT cells = assay: Safety evaluation: cell viability of HaCaT cells by WST-1 method; format: cell-based, human; conditions: 24 hours
Procedure: The safety of Fraglide-1 was examined by a viable cell counting method using a water-soluble tetrazolium salt (WST-1). Specifically, HaCaT cells were suspended in DMEM medium at the concentration of 1×10^5 cells/mL. The obtained cell suspension was seeded in a white 96-well plate (ThermoFisher Scientific; Catalogue No. 136102) in an amount of 100 μL per well so that the number of cells per well was 10,000 cells/well. After 24 hours incubation at 37° C. and 5% CO2 in accordance with a conventional method, DMEM medium was removed and then either 100 μL of DMEM medium containing Fraglide-1 at a predetermined concentration or, as a control, 100 μL of DMEM medium not containing Fraglide-1 was added, followed by further incubation for 24 hours at 37° C. and 5% CO2. After the incubation for 24 hours, the number of viable cells was measured by using a premix reagent containing WST-1 (“Premix WST-1 Cell Proliferation Assay System”, Catalogue No. MK400, Takara Bio Inc., Shiga, Japan) in accordance with the procedure described in Experiment 1-2. The results shown in FIG. 16 are the mean of values obtained from three independent experiments, and the error bars represent standard error (SE).

Row | Compound | expression level of artemin mRNA compared to cells without FICZ (artemin mRNA; HaCaT cells, 500 nM FICZ) | expression level of artemin mRNA compared to cells without FICZ (artemin mRNA; HaCaT cells, 5,000 nM FICZ) | concentration necessary to observe a significant increase in the expression level of artemin mRNA (artemin mRNA; HaCaT cells) | change in expression level of artemin mRNA (artemin mRNA; HaCaT cells, FICZ 50 nM or lower) | expression level of artemin mRNA, dependence on concentration (artemin mRNA; HaCaT cells, FICZ 5-5,000 nM) | cell viability (HaCaT cells; 500 μM, HaCaT cells) | CC50 (HaCaT cells; read-out: LC50 (Median Lethal Concentration) against HaCaT cells)
1 | 6-formylindolo[3,2-b] carbazole [FICZ] | about 3.0 fold | ~3.7 fold | at least 500 nM | no change was observed | increased along with the concentration of FICZ | – | –
2 | O=C1C=C(c2ccccc2)C(O)O1 (stereo not shown) [Fraglide-1, 5-hydroxy-4-phenyl-2(5H)butenolide] | – | – | – | – | – | more than 50% | > 500 µM
